Data reported in paper PMC2583053, “snoRNA, a Novel Precursor of microRNA in Giardia lamblia” (PLoS Pathogens, 2008).

T1: GlAgo (Giardia Argonaute) (Giardia duodenalis, UniProt A8BCK6)
T1 construct: gene Ago; full-length ORF from Giardia genomic DNA in pET28b, His-tagged (C-terminal His6 encoded by reverse primer), expressed in E. coli BL21(DE3) with chaperones, Ni-NTA purified; strain WB is printed for the trophozoites used, not for the cloning DNA
T1 sequence (A8BCK6 1-900): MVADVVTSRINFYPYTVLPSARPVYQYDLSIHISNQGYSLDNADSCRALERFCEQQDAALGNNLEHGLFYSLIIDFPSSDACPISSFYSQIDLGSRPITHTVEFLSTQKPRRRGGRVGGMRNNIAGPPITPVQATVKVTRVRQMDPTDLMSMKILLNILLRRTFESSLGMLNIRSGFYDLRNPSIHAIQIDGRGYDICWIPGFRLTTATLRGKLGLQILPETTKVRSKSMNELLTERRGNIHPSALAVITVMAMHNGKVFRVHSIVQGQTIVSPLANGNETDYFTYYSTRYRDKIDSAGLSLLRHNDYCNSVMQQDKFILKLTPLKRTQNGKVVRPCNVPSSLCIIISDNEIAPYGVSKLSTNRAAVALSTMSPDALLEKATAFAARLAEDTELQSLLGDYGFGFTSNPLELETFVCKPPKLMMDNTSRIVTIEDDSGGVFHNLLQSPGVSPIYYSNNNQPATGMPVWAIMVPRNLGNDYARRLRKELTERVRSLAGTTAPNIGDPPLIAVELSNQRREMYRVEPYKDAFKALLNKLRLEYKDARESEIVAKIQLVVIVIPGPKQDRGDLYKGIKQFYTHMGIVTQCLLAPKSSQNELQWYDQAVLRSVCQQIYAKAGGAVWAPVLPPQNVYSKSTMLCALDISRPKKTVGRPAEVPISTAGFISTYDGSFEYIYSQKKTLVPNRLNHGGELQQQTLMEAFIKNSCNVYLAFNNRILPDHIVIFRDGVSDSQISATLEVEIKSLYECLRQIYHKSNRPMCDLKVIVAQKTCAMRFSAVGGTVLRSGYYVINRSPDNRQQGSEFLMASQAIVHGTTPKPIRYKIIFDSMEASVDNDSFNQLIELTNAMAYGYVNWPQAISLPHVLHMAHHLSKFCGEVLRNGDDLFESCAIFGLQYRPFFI

T2: GlAgo (Giardia Argonaute) (Giardia lamblia, UniProt A8BCK6 1-900)
T2 sequence: T1 sequence (A8BCK6 1-900)


Columns and labels:
[1] = target: T1, GlAgo (Giardia Argonaute); experiment: m7GpppG-Sepharose affinity retention, elution with free m7GpppG, anti-His Western blot; assay type: binding; details: 20 mM HEPES pH 7.4, 150 mM KCl, 1 mM EDTA, 2 mM DTT; washed with 0.1 mM GTP, eluted with 0.1 mM m7GpppG
[2] = target: T2, GlAgo (Giardia Argonaute); experiment: EMSA; 10 ng miR2; competed by unlabeled miR2 and by yeast RNA (no sequence specificity); EMSA: native 6% polyacrylamide gel, 10 ng radiolabeled miR2; binding buffer, pH and temperature not given in the material; details: protein: recombinant; tags: C-terminal 6xHis (encoded in reverse primer S6); single strand

Molecule	m7GpppG-Sepharose affinity retention, elution with free m7GpppG, anti-His Wester [1]	binding result [2]
C[n+]1cn([C@@H]2O[C@H](COP(=O)(O)OP(=O)(O)OP(=O)(O)OC[C@H]3O[C@@H](n4cnc5c(=O)[nH]c(N)nc54)[C@H](O)[C@@H]3O)[C@@H](O)[C@H]2O)c2nc(N)[nH]c(=O)c21 [m^7GpppG]	the protein was specifically eluted off the Sepharose beads with m^7GpppG	–
CAGCCUAAUCACCGCCCCUAUAGUCC (ssRNA) [miR2]	–	binds
